Starred links: 1 amine or outer side, 2 acyl side, 3 side chain; linkers in the order of their positions; H or OH if unused. Positions of bridges follow the written chain, without caps; N, C: chain ends. Non-standard residues stand in square brackets, D forms with d. Residues, ends and D or L forms follow the SMILES beside them. No end group written: not given here. *: point of attachment. Leu(3R-OH,Nα-propionyl) = CCC(=O)N[C@H](C(=O)*)[C@H](O)C(C)C; X1 = CC(C)[C@@H](O[*:3])[C@H](N[*:1])C(=O)[*:2]; NMeT = CN[C@H](C(=O)O)[C@@H](C)O; dPhLac = O=C(O)[C@H](O)Cc1ccccc1; NMeA = CN[C@@H](C)C(=O)O; NMeDha = C=C(NC)C(=O)O
Experiments:
[1] = tested on: Gq; assay: RlucII-tagged Gq translocation to rGFP markers (BRET) with TPαR; format: cell-based, human; conditions: 100 nM Ubo-Qic 20 min
[2] = tested on: Acetylcholine receptors; assay: PKN-based RhoA activation BRET assay, carbachol stimulation; format: cell-based; conditions: 100 nM Ubo, 100 μM carbachol 70 s
Experimental: PKN-based RhoA activation assay. For FIGS. 25B-D, HEK293SL cells were grown in DMEM supplemented with 6% fetal bovine serum (FBS) and 20 μg/ml gentamycin, at 37° C. Cells were seeded at a density of 7.5×10^5 cells per 100 mm dishes and were transiently transfected the next day with constructs encoding AT1R (3 μg) along with PKN-crib-RlucII (90 ng) and rGFP-CAAX (480 ng) using calcium phosphate method as described previously. After 24 h, cells were detached and seeded onto poly-ornithine-coated 96-well white plates at a density of 25 000 cells per well in media. The next day, cells were washed once with Tyrode's buffer and left in 80 μl of Tyrode's buffer at 37° C. When indicated, cells were treated with Ubo-Qic 100 nM for 30 min or C3 toxin for 3 μg/ml (in FIG. 25I), 4 hours at 37° C. Cell stimulation and BRET measurements were done at RT. BRET signals were monitored by addition of Coel-400a to a final concentration of 5 μM using a Synergy2 (BioTek®) microplate reader. Filter set was 410±80 nm and 515±30 nm for detecting the RlucII Renilla luciferase (donor) and rGFP (acceptor) light emission. […] BRET was measured at 37° C., using a Tristar Microplate Reader (Berthold Technologies) equipped with BRET400-GFP2/10 filter set (acceptor, 515±20 nm; and donor, 400±70 nm filters). […] BRET was measured at 37° C., using a Tristar Microplate Reader (Berthold Technologies).

[3] = target: T1, AT1R (Homo sapiens, UniProt P30556); assay: β-arrestin2 targeting to endosomes BRET (AT1R/βarr2-RlucII/rGFP-endofinFYVE); format: cell-based; conditions: 40 min
T1 construct: expressed in transfected cells; host or cells: HEK293SL
T1 sequence (P30556 1-359): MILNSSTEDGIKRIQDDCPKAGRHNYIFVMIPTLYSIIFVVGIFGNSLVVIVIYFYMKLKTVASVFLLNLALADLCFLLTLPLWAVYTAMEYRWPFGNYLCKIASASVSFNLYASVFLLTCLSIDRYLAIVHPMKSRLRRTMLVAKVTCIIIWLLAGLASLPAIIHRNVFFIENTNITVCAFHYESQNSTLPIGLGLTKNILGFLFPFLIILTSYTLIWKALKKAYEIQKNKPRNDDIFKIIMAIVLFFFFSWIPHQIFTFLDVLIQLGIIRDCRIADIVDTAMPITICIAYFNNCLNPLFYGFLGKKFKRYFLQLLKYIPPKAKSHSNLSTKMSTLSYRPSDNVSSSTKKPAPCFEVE
Experimental: BRET measurements for FIGS. 1B to 9D, 25D to 25F. The following day of transfection, cells were detached and replated onto poly-ornithine coated white 96-well plate at a density of 25,000 cells per well. The next day, cells were washed once with pre-warmed Tyrode's buffer (140 mM NaCl, 2.7 mM KCl, 1 mM CaCl2, 12 mM NaHCO3, 5.6 mM D-glucose, 0.5 mM MgCl2, 0.37 mM NaH2PO4, 25 mM HEPES, pH 7.4), and then stimulated with either various concentrations of ligands in Tyrode's buffer for the indicated time, or single concentration of ligands for various times at 37° C. For recycling experiment, after stimulating the cells with the ligands for 30 min at 37° C., they were washed either three times with ice-cold Tyrode's buffer or once with Tyrode's buffer/three times with acid (50 mM sodium citrate, pH 4.0)/two times with Tyrode's buffer. All the washing steps were performed on ice. Cells were then further incubated with Tyrode's buffer at 37° C. in a water bath for 45 min. The cell-permeable substrate, coelenterazine 400a was added at a final concentration of 5 μM in Tyrode's buffer 3-4 min before BRET measurements. Measurements were performed by using Synergy2 (BioTek®) microplate reader with a filter set of 410±80 nm and 515±30 nm for detecting the RlucII Renilla luciferase (donor) and GFP10 or rGFP (acceptor) light emissions, respectively. The BRET signal was determined by calculating the ratio of the light intensity emitted by the GFP10 or rGFP over the light intensity emitted by the RlucII. All the BRET measurements were performed in triplicate at 37° C.

Compound	U46619 response of Gq translocation to rGFP-CAAX Hras, rGFP-CAAX CCIL and Golgi markers after Gq inhibitor [1]	effect on CCh-mediated response (Rho sensor) [2]	β-arrestin2 trafficking to endosomes with receptors, compared to AngII [3]
C=C1C(=O)N[C@@H](C)C(=O)N(C)[C@@H](C)C(=O)N[C@@H]([C@H](OC(=O)[C@@H](NC(=O)CC)[C@H](O)C(C)C)C(C)C)C(=O)N(C)[C@@H]([C@@H](C)OC)C(=O)O[C@H](C(C)C)[C@H](NC(C)=O)C(=O)O[C@H](Cc2ccccc2)C(=O)N1C [Ubo-QIC] (Ac-[X1][dPhLac][NMeDha]A[NMeA][X1](Leu(3R-OH,Nα-propionyl))[NMeT](Me); ester 1-C)	No response is observed	completely blocked	–
DRVYVHPG [DVG, [Asp^1,Val^5, Gly^8]-AngII]	–	–	weakly promoted

— patent US10584159B2, “Renilla based biosensors for monitoring biomolecule localization and trafficking in cells” (The Royal Institution for the Advancement of …, priority 2014, dated 2020)
